The values below are quoted from earlier work in patent US20140163109A1, “TASTE-MASKED IBUPROPEN GRANULES” (GLATT AG, priority 2012, published 2014).

Take `CC(C)Cc1ccc(C(C)C(=O)O)cc1` (racemic) [Ibuprofen, (±)-2-(4-isobutylphenyl) propionic acid]: the solubility in water result was “poorly soluble in water”.
